Laboratory results: PubChem BioAssay AID743396 (Broad Institute, 2014)
Calls of active or inactive are those of the source.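 The calls were made as follows: active = fitted curve reaches a 40% rise in fluorescent cells at or below the top valid dose; inactive = opposite-direction effect, or the rest.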

Experiment: compound fluorescence in GFP channel, mTEFS cells – imaging, mTEFS fibroblasts, cherry-pick, artefact control for X-chromosome reactivation project, dose response (AID 743396);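 also: raw share of Hoechst-counted cells scored GFP positive without control normalization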
Settings: mTEFS fibroblasts autofluorescence, GFP-channel imaging, 3 days; at 19.5 µM (top of the series)
In the case of `Cc1ccc2[nH]c(=S)n(-c3cccnc3)c(=O)c2c1`, the % fluorescent cells increase is reported as 0.016% (inactive).
In the case of `COP(=S)(OC)Oc1ccc(Sc2ccc(OP(=S)(OC)OC)cc2)cc1`, the % fluorescent cells increase is reported as 0.075% (inactive).

Same assay, conditions: mTEFS fibroblasts autofluorescence, GFP-channel imaging, 3 days; at 19.5 µM (top of the series); cells pretreated with 5-aza-dC
In the case of `CCOC(=O)c1ccccc1NC(=O)COC(=O)C1CCN(S(=O)(=O)c2ccccc2C(=O)OC)CC1`, the % fluorescent cells increase is reported as 0% (inactive).
In the case of `CCOC(=O)C1(Cc2ccccc2C)CCCN(C(=O)CSC)C1` (centres undefined), the % fluorescent cells increase is reported as 0% (inactive).
With `Cc1ccc(S(=O)(=O)N2CC3(O)CN(C(=O)OC(C)C)N(C(=O)OC(C)C)CC3(OC(=O)NCc3ccccc3)C2)cc1` (centres undefined) the % fluorescent cells increase was 0.003% (inactive).
For `Cn1c(=N)n(CC(=O)c2ccccc2)c2ccccc21`, the % fluorescent cells increase was 0% (inactive).
With `C=CCNC(=O)N[C@@H](Cc1ccccc1)C(=O)OC` the % fluorescent cells increase was 1.04% (inactive).
In the case of `O=C(O)c1ccc(COc2ccccc2C=C2C(=O)c3ccccc3C2=O)cc1`, the % fluorescent cells increase is reported as -0.004% (inactive).
With `O=C(/C=C/Sc1ccc(C(F)(F)F)cn1)c1ccccc1` the % fluorescent cells increase was -0.007% (inactive).
With `Cc1cccc(C(=O)NCc2ccc(S(N)(=O)=O)cc2)c1[N+](=O)[O-]` the % fluorescent cells increase was -0.007% (inactive).
In the case of `COC(=O)c1ccc(CNC(=O)COC(=O)c2cc(Cl)ccc2O)cc1`, the % fluorescent cells increase is reported as 0% (inactive).
In the case of `O=C1C2C3C=CC(CNS(=O)(=O)c4ccccc4[N+](=O)[O-])(O3)C2C(=O)N1c1ccccc1` (centres undefined), the % fluorescent cells increase is reported as 0.044% (inactive).
In the case of `CC(=O)Nc1ccc(S(=O)(=O)N(C)c2ccc(OCC(=O)NCCc3ccccc3F)cc2)cc1`, the % fluorescent cells increase is reported as 0.014% (inactive).
For `COc1ccc(S(=O)(=O)Nc2ccc3c(c2)C(=O)N([C@@H](C)CO)C[C@H](C)[C@H](CN(C)C(=O)CCCN(C)C)OCCCC[C@H](C)O3)cc1`, the % fluorescent cells increase was 0.13% (inactive).
In the case of `Cc1ccc(C)c(OCCC(=O)Nc2cc(S(=O)(=O)N3CCCCC3)ccc2C)c1`, the % fluorescent cells increase is reported as 13% (inactive).
With `CC(C)c1cc(C(=O)N/N=C/c2cccnc2)cs1` the % fluorescent cells increase was -0.004% (inactive).
For `CCN1CCN(c2cc3nc(C)n(Cc4ccccc4)c(=O)c3cc2NC(=O)c2ccccc2F)CC1`, the % fluorescent cells increase was 0% (inactive).
In the case of `N/C(=N\OC(=O)C12CC3CC(CC(C3)C1)C2)c1ccncc1`, the % fluorescent cells increase is reported as -0.004% (inactive).
In the case of `COc1cc(/C=N/Nc2nc(N3CCCC3)nc(N3CCCC3)n2)ccc1OCc1ccccc1F`, the % fluorescent cells increase is reported as 0.025% (inactive).
In the case of `CC(=O)NC(c1ccc(Cl)cc1)c1c(O)ccc2ccc(O)cc12` (centres undefined), the % fluorescent cells increase is reported as 0.001% (inactive).
In the case of `CC(=O)Oc1ccc2c(=O)c(-c3ccccc3)coc2c1`, the % fluorescent cells increase is reported as 0.02% (inactive).
In the case of `Cc1ccc(S(=O)(=O)c2ccc([N+](=O)[O-])cn2)cc1`, the % fluorescent cells increase is reported as 0% (inactive).
For `CC(=O)Nc1sc(N/N=C/c2ccc(N(C)C)cc2)nc1-c1ccc(C)cc1`, the % fluorescent cells increase was -0.004% (inactive).
With `CCc1ccc(CN(C)C(=O)c2cc(S(=O)(=O)N3CCOCC3)ccc2N2CCCC2)cc1` the % fluorescent cells increase was 0.027% (inactive).
With `COc1cc(/C=C/C(=O)c2ccc3c(c2)OCCO3)cc(Br)c1OCC(=O)N(C)C` the % fluorescent cells increase was 7.79% (inactive).
For `O=c1[nH]cnc2c1ncn2[C@H]1CC[C@@H](CO)O1`, the % fluorescent cells increase was 0.722% (inactive).
For `COc1ccc2c3c(n(C)c2c1)[C@@H](CO)N(Cc1ccccc1OC)CC31CCN(C)CC1`, the % fluorescent cells increase was -0.158% (inactive).
With `Cc1ccc(NC(=O)c2ccc(=O)[nH]c2)cc1S(=O)(=O)N1CCCCCC1` the % fluorescent cells increase was 0.615% (inactive).
With `Cc1ccc2c(COC(=O)C34CC5CC(CC(C5)C3)C4)cc(=O)oc2c1` the % fluorescent cells increase was 0% (inactive).
For `O=[N+]([O-])c1ccccc1-c1ccc(C(=S)N2CCN(c3ccccc3)CC2)o1`, the % fluorescent cells increase was 0.237% (inactive).
For `C/C=C/Cn1c(SCCCc2ccccc2)nc2c1c(=O)[nH]c(=O)n2C`, the % fluorescent cells increase was -0.004% (inactive).
With `COc1ccc(CCn2c(C)cc(C(=O)CN3C(=O)C(=O)N(Cc4ccco4)C3=O)c2C)cc1` the % fluorescent cells increase was 0% (inactive).
In the case of `Cc1ccsc1/C=N/n1c(-c2cc(-c3ccccc3)n[nH]2)n[nH]c1=S`, the % fluorescent cells increase is reported as 0% (inactive).
With `COc1ccccc1OCCOc1ccc(/C=C2\C(=N)N3N=C(S(C)(=O)=O)SC3=NC2=O)cc1` the % fluorescent cells increase was 0% (inactive).
In the case of `COc1ccc2c3c([nH]c2c1)[C@H](CO)N(C(=O)Nc1ccc(F)cc1)CC31CN(CC2CC2)C1`, the % fluorescent cells increase is reported as 0.116% (inactive).
With `CCOC(=O)CSc1nnc(CCCCCN2C(=O)c3cccc4cccc(c34)C2=O)o1` the % fluorescent cells increase was 0.071% (inactive).
In the case of `CCOC(=O)/C(C#N)=C/C=C1/C=CC=CN1C`, the % fluorescent cells increase is reported as 0.015% (inactive).
In the case of `Brc1ccc(-c2cn3ccccc3n2)cc1`, the % fluorescent cells increase is reported as 0% (inactive).
With `O=c1c2ccccc2nnn1Cc1ccc2ccccc2c1` the % fluorescent cells increase was 0.015% (inactive).
In the case of `O=C(OCc1cccc(F)c1)c1ccc2c(=O)n3c(nc2c1)CCC3`, the % fluorescent cells increase is reported as 0.065% (inactive).
With `Oc1c(C(c2ccccc2Cl)N2CCCC2)ccc2cccnc12` (centres undefined) the % fluorescent cells increase was 0% (inactive).
For `COC(=O)c1c(NC(=O)c2ccccc2)sc2c1CC(C)(C)NC2(C)C`, the % fluorescent cells increase was -0.011% (inactive).
With `COc1ccc(N2CCN(C(CNC(=O)c3ccc4c(c3)OCO4)c3ccco3)CC2)cc1` (centres undefined) the % fluorescent cells increase was 0% (inactive).
For `O=C(c1ccc(Br)cc1)c1cc([N+](=O)[O-])ccc1N1CCOCC1`, the % fluorescent cells increase was 4.03% (inactive).
For `O=C(NC1=NN(c2ccccc2)CC1)Nc1ccccc1F`, the % fluorescent cells increase was -0.002% (inactive).
In the case of `C[C@H](CO)N1C[C@H](C)[C@H](CN(C)Cc2ccccc2)Oc2ccc(NS(C)(=O)=O)cc2C1=O`, the % fluorescent cells increase is reported as 0.123% (inactive).
In the case of `COc1cc(/C=C(\C#N)c2nc3ccccc3o2)ccc1O`, the % fluorescent cells increase is reported as 2.54% (inactive).
In the case of `Nc1c(C(=O)O)cnn1-c1ccc([N+](=O)[O-])cc1`, the % fluorescent cells increase is reported as 0.002% (inactive).
In the case of `O=CNc1ccc2c(c1)Cc1cc([N+](=O)[O-])ccc1-2`, the % fluorescent cells increase is reported as 0.119% (inactive).
In the case of `NNc1nc2c(-c3ccc(F)cc3)nnn2c2ccccc12`, the % fluorescent cells increase is reported as 0.008% (inactive).
With `Cc1nn(-c2ccccc2)c(C)c1N` the % fluorescent cells increase was 0% (inactive).
In the case of `Cc1ccccc1NC(=O)CN1C(=O)S/C(=C\c2ccc(-c3cc(C(=O)O)ccc3C)o2)C1=O`, the % fluorescent cells increase is reported as 0% (inactive).
With `Cc1c(CN2CCCC(C(=O)c3cccc(OC(C)C)c3)C2)c(=O)n(-c2ccccc2)n1C` (centres undefined) the % fluorescent cells increase was 0.037% (inactive).
In the case of `COc1cccc(CNC(=O)c2ccc(NC(=O)CC3SC(N4CCCC4)=NC3=O)cc2)c1` (centres undefined), the % fluorescent cells increase is reported as 0% (inactive).
For `Nc1nc(C2CCOCC2)cs1`, the % fluorescent cells increase was 0.017% (inactive).
In the case of `CC(C)OC(=O)CC(=O)CSc1nc(-c2ccc(F)cc2)cc(-c2ccccc2)c1C#N`, the % fluorescent cells increase is reported as 0.594% (inactive).
With `CC(=O)c1ccc(C(=O)Nc2sc3c(c2C(N)=O)CCN(Cc2ccccc2)C3)cc1` the % fluorescent cells increase was 8.52% (inactive).
With `Cc1ccc(/C=C/C(=O)N2CCN(S(=O)(=O)/C=C/c3ccccc3)CC2)o1` the % fluorescent cells increase was 0.017% (inactive).
With `COc1ccc(-c2noc(-c3cccs3)n2)cc1OC` the % fluorescent cells increase was 0.073% (inactive).
In the case of `CO[C@H]1CN(C)C(=O)c2ccc(NC(=O)Cc3ccccc3)cc2OC[C@@H](C)N(C)C[C@H]1C`, the % fluorescent cells increase is reported as 0% (inactive).
For `COc1ccc(C(=O)CN2Cc3ccccc3C2=N)cc1`, the % fluorescent cells increase was 0.041% (inactive).
With `COC(=O)CCN1CCC(c2cc(-c3cccc(C(F)(F)F)c3)n[nH]2)CC1` the % fluorescent cells increase was 0% (inactive).
In the case of `Oc1cccc(/C=N/NC(=S)NCCN2CCOCC2)c1O`, the % fluorescent cells increase is reported as 0% (inactive).
With `CC(Sc1nnc(Cc2ccccc2)o1)C(=O)Nc1ccccc1[N+](=O)[O-]` (centres undefined) the % fluorescent cells increase was -0.011% (inactive).
In the case of `COc1ccc(CNC(=O)c2ccc(-c3cnn(C)c3)c3ccoc23)cc1OC`, the % fluorescent cells increase is reported as 1.28% (inactive).
For `O=C(N/N=C/c1ccc(O)c2ncccc12)c1cccc(Br)c1`, the % fluorescent cells increase was -0.003% (inactive).
For `COc1ccc2c3c([nH]c2c1)[C@@H](CO)N(Cc1ccccc1F)CC31CN(C(=O)C2CCOCC2)C1`, the % fluorescent cells increase was -0.038% (inactive).
With `Nc1nc(Nc2ccc(Cl)cc2)c(NC=O)c(=O)[nH]1` the % fluorescent cells increase was 18.8% (inactive).
In the case of `CCOc1ccc(NC(=S)NC(C)c2cccs2)cc1` (centres undefined), the % fluorescent cells increase is reported as 0% (inactive).
In the case of `COC(=O)c1cc(C(=O)N2CCN(c3ccccc3OC)CC2)cc([N+](=O)[O-])c1`, the % fluorescent cells increase is reported as 0% (inactive).
With `COc1ccc(C)c(-n2c(=O)n(Cc3ccccc3)c(=O)c3[nH]cnc32)c1` the % fluorescent cells increase was 0.074% (inactive).
With `Cc1ccc(S(=O)(=O)Nc2ccc3c(c2)C(=O)N([C@@H](C)CO)C[C@@H](C)[C@@H](CN(C)Cc2ccc(C(=O)Nc4ccccc4N)cc2)O3)cc1` the % fluorescent cells increase was 0% (inactive).
In the case of `COc1ccc(/C=c2/sc3nc(-c4ccccc4)c(-c4ccccc4)n3c2=O)cc1`, the % fluorescent cells increase is reported as 0.085% (inactive).
With `Oc1cc2c(c(Cl)c1O)CCNCC2c1ccccc1` (centres undefined) the % fluorescent cells increase was -0.007% (inactive).
For `CCc1ccc(CCC(=O)Nc2ncc(Cc3ccccc3Cl)s2)o1`, the % fluorescent cells increase was -0.007% (inactive).
With `CCOC(=O)C1=C(C)NC(=S)NC1/C=C/c1ccccc1` (centres undefined) the % fluorescent cells increase was -0.004% (inactive).
In the case of `O=C(NNC(=O)c1ccccc1Cl)c1ccccc1Cl`, the % fluorescent cells increase is reported as 0.057% (inactive).
In the case of `C/C(=N\NC(=O)CC1N=C(Cc2ccccc2)NNC1=O)c1ccc(Br)cc1` (centres undefined), the % fluorescent cells increase is reported as 0.037% (inactive).
In the case of `CCNC(=O)C[C@@H]1CC[C@H]2[C@@H](COC[C@@H](O)CN2C(=O)C2CCCC2)O1`, the % fluorescent cells increase is reported as 0.746% (inactive).
With `C[C@@H]1CN([C@H](C)CO)C(=O)c2cc(NS(=O)(=O)c3ccccc3)ccc2O[C@@H](C)CCCCO[C@@H]1CN(C)Cc1ccc2c(c1)OCO2` the % fluorescent cells increase was 3.87% (inactive).
With `Cc1cc(-c2nc(C)c(-c3nnc(SCC(=O)Nc4ccc(Cl)cc4)n3C)s2)no1` the % fluorescent cells increase was 0% (inactive).
For `O=C1c2ccc3c4c(ccc(c24)C(=O)N1c1cccc(O)c1)C(=O)N(c1cccc(O)c1)C3=O`, the % fluorescent cells increase was -0.003% (inactive).
For `NC(=O)c1sc2nc3c(cc2c1N)CCCCCC3`, the % fluorescent cells increase was 0.03% (inactive).
With `C[C@@H]1CN([C@H](C)CO)C(=O)c2cc(NC(=O)Nc3ccc4c(c3)OCO4)ccc2O[C@@H](C)CCCCO[C@@H]1CN(C)C(=O)Cc1ccccc1` the % fluorescent cells increase was 0.027% (inactive).
